Experimental findings from patent EP4817428A1, “SWEETNESS ENHANCER CONTAINING ERGOTHIONEINE AS ACTIVE INGREDIENT, AND FOOD OR BEVERAGE PRODUCT CONTAINING SAME” (Kikkoman Corporation, priority 2023, dated 2025) are described below.

Read-outs that look alike come from different tables or passages of the source.

The nature of one data set: physchem. The class given is physicochemical. As to conditions: 10% (100,000 ppm) dissolved in water at 40°C, left at 4°C; ERG precipitated 1 day later; read-out: concentration at which ERG could be contained in water. Here is the method:
ERG was dissolved in water at 40°C so that the ergothioneine concentration became 10% (100,000 ppm), and then left to stand at 4°C. When the solution was checked 1 day later, ERG was precipitated. From the above, the concentration at which ERG could be contained in water was less than 10%.

The nature of data set [1]: Test 9 (2): paired comparison test of sweetness, 50% liquid sugar sample. The data set is classed as in vivo. The following applies: 50% liquid sugar samples.
Method: Samples were prepared by adding ERG to a 50% liquid sugar sample of an isomerized sugar containing 55% or more of fructose (New Fructo 55 (NF55), Showa Sangyo Co., Ltd.) to the ERG concentrations shown in Table 13 (ERG0 to 20). Pairs combining a control 50% liquid sugar sample and a 50% liquid sugar sample containing ERG at each concentration were presented, and the panel evaluated which sample of the presented pair was perceived to be sweeter by a paired comparison test.
The format of data set [2] is in vivo. The following applies: amazake. As for the experimental part: (§1) Evaluation results of sweetness of test product compared with control • ∘: Sweetness was enhanced compared to the control. • ◇: Sweetness was similar to that of the control.
1,250 g of white rice was soaked in water overnight, transferred to a colander, and drained for 2 hours. Thereafter, the rice was wrapped in a Tetoron cloth and steamed at 100°C for 40 minutes. The steamed rice was cooled to 45°C, and a seed koji was inoculated. The rice was wrapped in a Pylen cloth, and koji-making was started under the conditions of 35°C and 95% humidity. 19 hours after the start of koji-making, the rice koji was loosened and wrapped again in the Pylen cloth. When the product temperature reached 40°C, the Pylen cloth was spread and the rice koji was leveled. After another 40 hours, the rice koji was well loosened and left to stand again. After 42 hours, the koji was taken out. […]
The sweetness of the amazake was sensorially evaluated by an expert panel consisting of five trained sweetness-sensitive subjects.
Pairs combining amazake containing ERG at different concentrations shown in Table 19 (ERG12 to 345) were presented to the expert panel of five, and the panelists evaluated which sample of the presented pair was perceived to be sweeter by a paired comparison test.

Data set [3] in a line: Test 9 (5): paired comparison test of sweetness, 10% aspartame sample. The class given is in vivo. The following applies: 10% aspartame samples.
Method: Samples were prepared by adding ERG to a 10% aspartame sample of aspartame (Pal Sweet Slim Up Sugar, Ajinomoto Co., Inc.) to the ERG concentrations shown in Table 16 (ERG0 to 20). Pairs combining a control 10% aspartame sample and a 10% aspartame sample containing ERG at each concentration were presented, and the panel evaluated which sample of the presented pair was perceived to be sweeter by a paired comparison test.
Data set [4] is classed as in vivo. The following applies: specially selected whole soybean soy sauce. As for the experimental part:
as §1
Soy sauces were prepared by adding ergothioneine to a commercially available specially selected whole soybean soy sauce (Kikkoman Corporation) to addition concentrations of 10 ppm, 20 ppm, and 50 ppm (EGR10, 20, 50).
(§2) A drinking test by a panel of three experts was conducted on the soy sauce to which ERG was added at each concentration (the concentration was not disclosed to the panel), using a soy sauce to which no ergothioneine was added (ERG0) as a control, and the sweetness was sensorially evaluated by a paired comparison test.

Data set [5] can be described thus: Test 9 (4): paired comparison test of sweetness, 50% oligosaccharide sample. The class given is in vivo. As to conditions: 50% oligosaccharide samples.
Method: Samples were prepared by adding ERG to a 50% oligosaccharide sample of an oligosaccharide (Fuji Oligo #450, Nihon Shokuhin Kako Co., Ltd.) to the ERG concentrations shown in Table 15 (ERG0 to 10). Pairs combining a control 50% oligosaccharide sample and a 50% oligosaccharide sample containing ERG at each concentration were presented, and the panel evaluated which sample of the presented pair was perceived to be sweeter by a paired comparison test.
Data set [6] is classed as in vivo. Here is the method:
Samples were prepared by adding ergothioneine to 1% to 50% sucrose solutions to final concentrations of 0 ppm, 0.05 ppm, 0.1 ppm, 0.25 ppm, and 0.5 ppm (ERG0 to 0.5 in Table 1 below; hereinafter, "ERGX" means a sample to which X ppm of ERG is added).
A drinking test by an expert panel of four, different from those in Tests 1 and 2, was conducted on 1% to 50% sucrose samples to which ERG was added at each concentration (the concentration was not disclosed to the panel), using a 1% to 50% sucrose sample to which no ergothioneine was added as a control, and sweetness was sensorially evaluated. After tasting each sample and before tasting the next sample, the mouth was completely rinsed with water at room temperature. Pairs combining the control 1% to 50% sucrose sample and the 1% to 50% sucrose sample containing ergothioneine at each concentration were presented to the expert panel, and the panel evaluated which sample of the presented pair was perceived to be sweeter by a paired comparison test.
as §1

Data set [7] is described as follows: Test 9 (6): paired comparison test of sweetness, 0.1% stevia sample. As to conditions: 0.1% stevia samples. The class given is in vivo.
From the text: Pairs combining a control 0.1% stevia sample and a 0.1% stevia sample containing ERG at each concentration were presented, and the panel evaluated which sample of the presented pair was perceived to be sweeter by a paired comparison test.
Data set [8] is classed as in vivo. As to conditions: amakuchi soy sauce. As for the experimental part: as §1, §2
The same test as in (1) described above was conducted by adding ERG to a commercially available amakuchi soy sauce (Golden Murasaki, Fundokin Shoyu).

The format of data set [9] is in vivo. As to conditions: 50% trehalose samples. Here is the method: as §1
In the following Test 9, sensory evaluation was performed by a panel of three experts in the same paired comparison test as in Tests 3, 5, and 7.
Samples were prepared by adding ergothioneine to a 50% trehalose sample to final concentrations of 0.5 ppm, 1 ppm, 3 ppm, 5 ppm, 10 ppm, and 20 ppm (Table 11, ERG0 to 20).
For the 50% trehalose samples to which ERG was added at each concentration (the concentration was not disclosed to the panel), pairs combining a control 50% trehalose sample and a 50% trehalose sample containing ergothioneine at each concentration were presented to the expert panel, and the panel evaluated which sample of the presented pair was perceived to be sweeter by a paired comparison test.

The format of data set [10] is in vivo. The following applies: 4% sucrose. Here is the method:
as §1
Samples (ERG5 to 900) were prepared by adding ergothioneine to a 4% sucrose solution to final concentrations of 5 ppm, 20 ppm, 60 ppm, 100 ppm, 400 ppm, and 900 ppm, and a drinking test by an expert panel of four, different from those in Tests 1 and 2, was conducted on the 4% sucrose samples to which ERG was added at each concentration (the concentration was not disclosed to the panel), and sweetness was sensorially evaluated.
Pairs combining the control 4% sucrose sample of Table 3 below and the 4% sucrose sample containing ergothioneine at each concentration were presented to the expert panel, and the panel evaluated which sample of the presented pair was perceived to be sweeter by a paired comparison test.

Where [11] appears, read: sucrose solution of 0.5% or more and less than 1%.
Setting [12] is: sucrose solution of 1% or more and less than 10%.
Setting [13] is: sucrose solution of 10% or more.

As to `C[N+](C)(C)[C@@H](Cc1c[nH]c(=S)[nH]1)C(=O)[O-]` [ERG, Ergothioneine], the solubility at 24 h in the data set “physchem” is less than 100 mg/mL. Also, the “ERG added at which all the panelists evaluated that the sweetness was enhanced” value in data set [1] is listed as no less than 0.5 ppm; in data set [4], no less than 10 ppm; in [5], no less than 0.5 ppm; in data set [7], no less than 0.5 ppm; in data set [8] it was no less than 10 ppm; in data set [9] it was no less than 0.5 ppm. Further, the “ERG content at which all the panelists evaluated that the sweetness was enhanced” value in [2] is no less than 30 ppm. In addition, in [2] (345 ppm judged equivalent by a majority of the panelists), the “ERG content above which the degree of sweetness enhancement did not change” value was found to be 145 ppm. Further, the “ERG added at which three panelists evaluated that the sweetness was enhanced” value in data set [3] is recorded as no less than 0.5 ppm. Further, the “ERG having a sweetness-enhancing effect, based on the aspartame content” value in [3] was no less than 0.0005 % by weight. Further, the “ERG added at which all evaluated that the sweetness was enhanced” value in data set [6] (setting [11]) is recorded as no less than 0.5 ppm; in [6] (setting [12]), no less than 0.25 ppm; in data set [6] (setting [13]) it was no less than 0.1 ppm. For the same compound, the “amount of ERG having a sweetness-enhancing effect relative to the sucrose content” value in [6] (setting [11]) was no less than 0.01 % by weight; in [6] (setting [12]), no less than 0.0025 % by weight; in data set [6] (setting [13]) it was no less than 0.0001 % by weight. In [7], the “ERG having a sweetness-enhancing effect, based on the stevia content” value is no less than 0.05 % by weight. Moreover, in data set [9], the “ERG having a sweetness-enhancing effect, based on the trehalose content” value is listed as no less than 0.0001 % by weight. For the same compound, the “ERG concentration at which the sweetness-enhancing effect became constant” value in data set [10] is 100 ppm.
